# ChEMBL document CHEMBL1122062, “Inhibitors of adenosine deaminase. Studies in combining high-affinity enzyme-binding structural units. erythro-1,6-Dihydro-6-(hydroxymethyl)-9-(2-hydroxy-3-nonyl)purine and erythro-9-(2-hydroxy-3-nonyl)purine” (J Med Chem, 1982)
# Assays:
# [1] = target: T1, Adenosine deaminase (Bos taurus) (UniProt P56658)
# T1 sequence (whole entry): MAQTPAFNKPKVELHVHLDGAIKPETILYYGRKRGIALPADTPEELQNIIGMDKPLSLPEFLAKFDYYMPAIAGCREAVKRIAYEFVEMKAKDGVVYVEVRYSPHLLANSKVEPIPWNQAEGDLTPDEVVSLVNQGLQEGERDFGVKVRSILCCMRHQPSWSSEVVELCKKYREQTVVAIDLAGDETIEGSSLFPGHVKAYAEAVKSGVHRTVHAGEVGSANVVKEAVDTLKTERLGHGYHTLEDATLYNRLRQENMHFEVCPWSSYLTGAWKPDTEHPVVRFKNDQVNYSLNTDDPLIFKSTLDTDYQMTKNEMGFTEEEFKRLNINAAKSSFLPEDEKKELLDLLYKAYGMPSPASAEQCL
# [2] = Upper limit of relative enzyme affinity of compound to the substrate.
# [3] = target: T2, Adenosine deaminase (Bos taurus, UniProt P56658); assay: Ability to inhibit calf intestinal adenosine deaminase (ADA).
# T2 sequence (P56658 whole entry): T1 sequence (whole entry)
# [4] = target: T2, Adenosine deaminase; assay: Ability to inhibit calf intestinal adenosine deaminase (ADA); No data
SMILES,REA [1],Km/Ki [2],Ki [3] [nM],Ki [4] [nM]
OC[C@H]1O[C@@H](n2cnc3c2N=CNC[C@H]3O)C[C@@H]1O,2.8e+06,–,–,–
CCCCCCC(C(C)O)n1cnc2cncnc21 (stereo unspecified),–,36,680,–
CCCCCCC(C(C)O)n1cnc2c1N=CNC2CO (stereo unspecified),–,2.1,–,12000
CCCCCC[C@@H]([C@@H](C)O)n1cnc2c(N)ncnc21 [EHNA],–,–,–,1.3
